Laboratory results published in article PMC3718205 (Biochemical and biophysical research communications, 2012).
Where a SMILES comes first, the peptide text is derived from it. The star is where a group is joined. X1 = C/C(=C\C*)CC/C=C(\C)COCc1ccc(C(=O)c2ccccc2)cc1; X3 = C/C(=C\C*)CC/C=C(\C)COCc1cccc(C(=O)c2ccccc2)c1; Biotin = O=C1N[C@H]2[C@H](CS[C@H]2CCCCC(=O)*)N1; X2 = C/C(=C\C*)COCc1cccc(C(=O)c2ccccc2)c1; X4 = C/C(=C\C*)COCc1ccc(C(=O)c2ccccc2)cc1; PEG4 = NCCOCCOCCOCCOCCC(=O)O

Tests used:
[1] = test system: human Icmt (hIcmt); conditions: cited from earlier work
[2] = test system: yeast Icmt; conditions: cited from earlier work
[3] = molecular target: T1, His10myc3N-Ste14p (His-Ste14p) (Saccharomyces cerevisiae, UniProt P32584); test: In vitro methyltransferase vapor diffusion assay, substrate kinetics, His-Ste14p; format: biochemical, S. cerevisiae; conditions: for Vmax: crude yeast membranes expressing His-Ste14p; for Fold lower Km of para- vs meta-substituted benzophenone a-factor analogs: His-Ste14p, vs meta-substituted analogs (7a, 8a)
T1 sequence (P32584 1-239): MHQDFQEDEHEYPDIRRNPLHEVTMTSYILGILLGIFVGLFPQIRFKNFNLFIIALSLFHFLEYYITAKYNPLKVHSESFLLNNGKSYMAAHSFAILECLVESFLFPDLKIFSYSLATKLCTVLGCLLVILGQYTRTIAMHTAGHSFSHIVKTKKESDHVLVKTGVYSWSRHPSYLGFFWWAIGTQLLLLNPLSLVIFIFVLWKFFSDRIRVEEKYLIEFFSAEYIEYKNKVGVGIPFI

[4] = molecular target: T1, His10myc3N-Ste14p (His-Ste14p); conditions: read-out: Km(app); AFC positive control; ± S.D.; cited from earlier work
[5] = molecular target: T2, His10myc3N-hIcmt (His-hIcmt) (Homo sapiens, UniProt O60725); conditions: AFC; ± S.D.; cited from earlier work
[6] = molecular target: T2, His10myc3N-hIcmt (His-hIcmt); test: Inhibition of His-hIcmt methyltransferase activity; format: biochemical
[7] = test system: His-Icmt; test: Competition of photolabeling by 8b with AFC, His-hIcmt; format: binding, human; conditions: 8b 200 μM, increasing AFC; data not shown

T2 sequence (O60725 whole entry): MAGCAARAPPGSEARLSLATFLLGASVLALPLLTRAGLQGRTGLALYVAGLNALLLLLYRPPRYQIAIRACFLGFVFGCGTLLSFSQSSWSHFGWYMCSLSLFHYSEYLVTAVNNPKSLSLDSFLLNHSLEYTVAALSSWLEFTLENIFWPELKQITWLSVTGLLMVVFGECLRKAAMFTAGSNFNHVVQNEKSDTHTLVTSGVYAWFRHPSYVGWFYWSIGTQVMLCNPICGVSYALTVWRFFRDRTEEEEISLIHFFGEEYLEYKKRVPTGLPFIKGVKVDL

SMILES | Substrate of human Icmt (in words) [1] | Substrate of yeast Icmt (in words) [2] | Vmax [3] | Inhibition of His-hIcmt (in words) [6] | further results
CC(=O)N[C@@H](CSC/C=C(\C)CC/C=C(\C)CC/C=C(\C)CCC=C(C)C)C(=O)O [AGGC, N-acetyl-S-geranylgeranyl-L-cysteine] | substrates for both human and yeast Icmts | substrates for both human and yeast Icmts |  |  | 
CC(=O)N[C@@H](CSC/C=C(\C)CC/C=C(\C)CCC=C(C)C)C(=O)O [Compound 1, N-acetyl-S-farnesyl-L-cysteine] | substrates for both human and yeast Icmts | substrates for both human and yeast Icmts | 869 pmol/min/mg |  | Km [4]: 15.9 ± 0.9 µM; Km [5]: 10.3 ± 0.5 µM
CC[C@H](C)[C@H](NC(=O)[C@H](Cc1ccc(O)cc1)NC(=O)CCOCCOCCOCCOCCNC(=O)CCCC[C@@H]1SC[C@@H]2NC(=O)N[C@@H]21)C(=O)N[C@H](C(=O)N[C@@H](CCCCN)C(=O)NCC(=O)N[C@H](C(=O)N[C@@H](Cc1ccccc1)C(=O)N[C@@H](Cc1c[nH]c2ccccc12)C(=O)N[C@@H](CC(=O)O)C(=O)N1CCC[C@H]1C(=O)N[C@@H](C)C(=O)N[C@@H](CSC/C=C(\C)COCc1cccc(C(=O)c2ccccc2)c1)C(=O)O)C(C)C)[C@@H](C)CC [Compound 7a, Biotin-Peg4-YIIKGVFWDPAC(C5-meta-Bp)] ({Biotin-PEG4}-YIIKGVFWDPAC(X2)-OH) |  |  | 473 pmol/min/mg | poor inhibitors of His-hIcmt | 
CC[C@H](C)[C@H](NC(=O)[C@H](Cc1ccc(O)cc1)NC(=O)CCOCCOCCOCCOCCNC(=O)CCCC[C@@H]1SC[C@@H]2NC(=O)N[C@@H]21)C(=O)N[C@H](C(=O)N[C@@H](CCCCN)C(=O)NCC(=O)N[C@H](C(=O)N[C@@H](Cc1ccccc1)C(=O)N[C@@H](Cc1c[nH]c2ccccc12)C(=O)N[C@@H](CC(=O)O)C(=O)N1CCC[C@H]1C(=O)N[C@@H](C)C(=O)N[C@@H](CSC/C=C(\C)COCc1ccc(C(=O)c2ccccc2)cc1)C(=O)O)C(C)C)[C@@H](C)CC [Compound 7b, Biotin-Peg4-YIIKGVFWDPAC(C5-para-Bp)] ({Biotin-PEG4}-YIIKGVFWDPAC(X4)-OH) |  |  |  | poor inhibitors of His-hIcmt | Fold lower Km of para- vs meta-substituted benzophenone a-factor analogs [3]: 2 – 3 times lower
CC[C@H](C)[C@H](NC(=O)[C@H](Cc1ccc(O)cc1)NC(=O)CCOCCOCCOCCOCCNC(=O)CCCC[C@@H]1SC[C@@H]2NC(=O)N[C@@H]21)C(=O)N[C@H](C(=O)N[C@@H](CCCCN)C(=O)NCC(=O)N[C@H](C(=O)N[C@@H](Cc1ccccc1)C(=O)N[C@@H](Cc1c[nH]c2ccccc12)C(=O)N[C@@H](CC(=O)O)C(=O)N1CCC[C@H]1C(=O)N[C@@H](C)C(=O)N[C@@H](CSC/C=C(\C)CC/C=C(\C)COCc1cccc(C(=O)c2ccccc2)c1)C(=O)O)C(C)C)[C@@H](C)CC [Compound 8a, Biotin-Peg 4-YIIKGVFWDPAC(C10-meta-Bp)] ({Biotin-PEG4}-YIIKGVFWDPAC(X3)-OH) |  |  | 762 pmol/min/mg | relatively potent | 
CC[C@H](C)[C@H](NC(=O)[C@H](Cc1ccc(O)cc1)NC(=O)CCOCCOCCOCCOCCNC(=O)CCCC[C@@H]1SC[C@@H]2NC(=O)N[C@@H]21)C(=O)N[C@H](C(=O)N[C@@H](CCCCN)C(=O)NCC(=O)N[C@H](C(=O)N[C@@H](Cc1ccccc1)C(=O)N[C@@H](Cc1c[nH]c2ccccc12)C(=O)N[C@@H](CC(=O)O)C(=O)N1CCC[C@H]1C(=O)N[C@@H](C)C(=O)N[C@@H](CSC/C=C(\C)CC/C=C(\C)COCc1ccc(C(=O)c2ccccc2)cc1)C(=O)O)C(C)C)[C@@H](C)CC [Compound 8b, Biotin-Peg4-YIIKGVFWDPAC(C10-para-Bp)] ({Biotin-PEG4}-YIIKGVFWDPAC(X1)-OH) |  |  |  | relatively potent | Fold lower Km of para- vs meta-substituted benzophenone a-factor analogs [3]: 2 – 3 times lower; Mode of inhibition (in words) [7]: competitive inhibitor; Photolabeling by 8b in presence of AFC (in words) [7]: decreased with increasing AFC concentration
CC(C)=CCCC(C)=CCCC(C)=CCSCCC(=O)O [FTP, farnesyl thiopropionic acid] | substrates for both human and yeast Icmts | substrates for both human and yeast Icmts |  |  | 
